Assay results taken from patent US4022962A, “Carbamylguanidine antimicrobial compounds” (Cooper Laboratories, Inc., priority 1975, dated 1977).
Converted amounts (≈) assume the structure as drawn. Structures can show the parent of a compound that is named as a salt.

Tests used:
S. Mutans = assay: quantitative serial dilution test, minimal inhibitory concentration; format: cell-based; details: Streptococcus mutans, brain-heart infusion broth, half strength, 37° C., 36 hours
Method: A quantitative serial dilution test may also be performed by the following procedure.
A 20 mg/ml solution of the compound to be tested is prepared in a standard brain-heart infusion broth medium which has been diluted with water to one-half standard strength. Serial dilutions are prepared by adding 1 ml of the solution to a test tube containing 9 ml of medium. Five milliliters of the resulting solution are then added to another test tube containing 5 ml of the medium. The resulting solution is then again diluted by the same procedure. Ordinarily one tenfold dilution and four twofold dilutions are made. The procedure can be continued if more dilute solutions are required. Each of the series of tubes containing solutions of the compounds to be assayed is inoculated with two drops of a heavy culture of the chosen microorganisms in the brain-heart infusion broth. The tubes are incubated at 37° C. for 36 hours and the most dilute solution showing no microbial growth is noted. The concentration of this solution is reported as the minimal inhibitory concentration (MIC).
The minimum inhibitory concentration of a number of the compounds of this invention with respect to the microorganism S. Mutans were determined by the procedure described above. Chlorhexidine diacetate a commercially successful antimicrobial was used as a control.

[1] = adsorption to extracted enamel tooth surfaces, spectrophotometric; set-up: species or system human; details: after no more was removed; fresh portions of the solutions
Method: Absorption of the compounds of this invention to extracted, non-carious, unprepared enamel tooth surfaces was investigated by the following procedure. Extracted human teeth, having their roots coated with wax so that only the enamel crowns were exposed, were immersed in 10 ml portions of stirred aqueous solutions of the test compound having a concentration of 10 micrograms/milliliter. After 10 minutes, the teeth were removed and the amount of test compound removed from the solution by adsorption was determined spectrophotometrically. […] The adsorption of the compounds of this invention was compared with that of chlorhexidine and found to be substantially greater. […] After no more of the test compounds was removed from the solution by adsorption, the teeth were immersed in fresh portions of the solutions.

dental plaque = details: cited from earlier work
[2] = when swallowed; cited from earlier work
[3] = in vivo; cited from earlier work
[4] = at the prevailing pH of the mouth; cited from earlier work
mice = assay: acute oral toxicity in mice; format: in vivo; details: 8 gms/Kg orally
Method: Acute oral toxicity of the compounds of this invention is determined in mice by the following procedure. The mice are fasted overnight, then formed into groups of 10 for testing. The animals in each group are fed a chosen dose and the dose is varied from group to group to cover a range of doses. The groups are then observed for a period of five days and the number of dead animals in each group is noted each day.

SMILES | MIC (S. Mutans) [µg/mL] | other results
N=C(NCCCCNC(=N)NC(=O)Nc1ccc(Cl)cc1)NC(=O)Nc1ccc(Cl)cc1 [1,4-bis(4-chlorophenylcarbamylguanidino)butane] | 0.625 (≈ 1.3 µM) | –
N=C(NCCCCCCNC(=N)NC(=O)Nc1cccc(C(F)(F)F)c1)NC(=O)Nc1cccc(C(F)(F)F)c1 [1,6-bis(3-trifluoromethylphenylcarbamylguanidino)hexane dihydrochloride] | 0.312 | –
[H]/N=C(\N/C(=N/[H])NCCCCCCNC(=N)NC(=N)Nc1ccc(Cl)cc1)Nc1ccc(Cl)cc1 [chlorhexidine, 1,6-bis-(p-chlorophenylbiguanidino)hexane] | – | further adsorption from fresh portions of solution [1]: No further adsorption; clinical antiplaque effect (dental plaque): clinically effected antiplaque agents; adsorption to gastrointestinal mucosa [2]: adsorbed to the gastrointestinal mucosa; local irritation of the oral mucosa and tongue [3]: produce local irritation of the oral mucosa and tongue; ionization state [4]: almost entirely cationic
N=C(NCCCCCCNC(=N)NC(=O)Nc1cccc(Cl)c1)NC(=O)Nc1cccc(Cl)c1 [1,6-bis(3-chlorophenylcarbamylguanidino)hexane diacetate] | 0.078 | –
CCCCC(CC)CNC(=O)NC(=N)NCCCCCCNC(=N)NC(=O)NCC(CC)CCCC (centres unmarked) [1,6-bis(2-ethylhexylcarbamylguanidino)hexane] | 0.625 (≈ 1.22 µM) | –
CCCCC(CC)CNC(=N)NC(=N)NCCCCCCNC(=N)NC(=N)NCC(CC)CCCC (centres unmarked) [alexidine, 1,6-bis(2-ethylhexylbiguanidino)hexane] | – | clinical antiplaque effect (dental plaque): clinically effected antiplaque agents; adsorption to gastrointestinal mucosa [2]: adsorbed to the gastrointestinal mucosa; local irritation of the oral mucosa and tongue [3]: produce local irritation of the oral mucosa and tongue; ionization state [4]: almost entirely cationic
N=C(NCCCCCCNC(=N)NC(=O)Nc1ccccc1Cl)NC(=O)Nc1ccccc1Cl [1,6-bis(2-chlorophenylcarbamylguanidino)hexane diacetate] | 0.312 | –
N=C(NCCCCCCNC(=N)NC(=O)Nc1ccc(Cl)cc1)NC(=O)Nc1ccc(Cl)cc1 [1,6-Bis-(p-chlorophenylcarbamylguanidino)hexane] | – | acute oral toxicity (mice): essentially atoxic
N=C(NCCCCCCNC(=N)NC(=O)Nc1ccc(Cl)cc1)NC(=O)Nc1ccc(Cl)cc1 [1,6-bis(4-chlorophenylcarbamylguanidino)hexane diacetate] | 0.078 | –
N=C(NCCCCCNC(=N)NC(=O)Nc1ccc(Cl)cc1)NC(=O)Nc1ccc(Cl)cc1 [1,5-bis(4-chlorophenylcarbamylguanidino)pentane monoacetate] | 0.078 | –
N=C(NC(=O)NCCCCCCNC(=O)NC(=N)Nc1ccc(Cl)cc1)Nc1ccc(Cl)cc1 [1,6-Bis(p-chlorophenylamidinoureido)hexane] | 2.5 (≈ 4.93 µM) | –

Second part, led by results:

MIC (S. Mutans) [µg/mL] | SMILES | other results
0.625 (≈ 1.43 µM) | N=C(NCCCCCCNC(=N)NC(=O)Nc1ccccc1)NC(=O)Nc1ccccc1 [1,6-bis(phenylcarbamylguanidino)hexane] | –
0.156 | N=C(NCCCCCCNC(=N)NC(=O)Nc1ccc(F)cc1)NC(=O)Nc1ccc(F)cc1 [1,6-bis(4-fluorophenylcarbamylguanidino)hexane diacetate] | –
0.312 | N=C(NCCCCCCCNC(=N)NC(=O)Nc1ccc(Cl)cc1)NC(=O)Nc1ccc(Cl)cc1 [1,7-bis(4-chlorophenylcarbamylguanidino)heptane dihydrochloride] | –
0.078 | N=C(NCCCCCCNC(=N)NC(=N)Nc1ccc(Cl)cc1)NC(=N)Nc1ccc(Cl)cc1 [chlorhexidine diacetate, reference compound] | –
0.312 | N=C(NCCCCCCNC(=N)NC(=O)Nc1ccc(Br)cc1)NC(=O)Nc1ccc(Br)cc1 [1,6-bis(4-bromophenylcarbamylguanidino)hexane diacetate] | –
